Tested on: TRZAX Triticum aestivum (Soft wheat)
Assay: Ipfencarbazone biostimulant effect, early post emergence foliar application, greenhouse pots, plant height: wheat
Type: in vivo
Source text: The original objective of this Example was to evaluate the herbicidal effect of ipfencarbazone when applied as a post emergent treatment to a range of selected crops and weeds. Unexpectedly, crop plant growth stimulation was observed. The actual species of weeds and crops are listed in the summary data tabulated below and in FIGS. 1-13. By convention each plant species has a Bayer code (5-letter name) with the scientific name for the plant referenced in FIGS. 1-13. In each Figure, each tray contains the same configuration of weeds and/or crops. In each Figure there is one replication of each treatment (six treatments in total). The top three photographs in each Figure show the Bayer Codes and bottom three photographs are aligned with the top three facilitating viewing of the same plant species. Throughout the Examples various abbreviations as conventional shorthand notation and will be appreciated by those skilled in the art. Some exemplary abbreviations include, “CV”=Co-efficient of Variation,” “LSD”=Least Significant Difference” (G/L (gram per L) AND GA/L (gram of active ingredient per L); “SC”=suspension concentrate formulation. The diluent in all treatments was water. By convention factors that are identical in all treatments (e.g. diluent and surfactant) are not listed in each treatment.
Methods: The indicated size pots (see Tables below) are filled with a specific soil, the soil properties being indicated below. The referenced crops and weeds are planted by hand in each pot. […] The experiments include six treatments each replicated three times on each crop/weed species. At a specific time after emergence each crop and weed species was treated with ipfencarbazone plus a non-ionic surfactant (NIS). In the present Example, the surfactant employed was ENERGIC™ (non-ionic surfactant). The application timing is indicated in each of the Tables (1 or 2 leaf stage) below. Ipfencarbazone plus surfactant was diluted in water and applied at a rate equivalent to about 250 L/ha. Ipfencarbazone was applied using a track sprayer. After treatment, the pots were randomized in a greenhouse. At each assessment (indicated by “days after treatment” or DAT) the height of each plant was measured. The letters next to each mean indicate the level of statistical significance.
Replications: 3, Untreated treatments: 1, Design: Randomized Complete Block (RCB), Treatment units: Treated ‘Plot’ experimental unit size, Dry Form. Unit: %, Treated ‘Plot’ experimental unit size Width: 1 meter, Treated ‘Plot’ experimental unit size Length: 1.4 meters, Application volume: 250 L/ha, Mix size: 0.15 liters, […]

[1] = TRZAX BRS327, 125 g ai/ha, 28 DA-A
[2] = TRZAX BRS327, 250 g ai/ha, 15 DA-A
[3] = TRZAX BRS327, 250 g ai/ha, 28 DA-A
[4] = TRZAX BRS327, 500 g ai/ha, 15 DA-A
[5] = TRZAX BRS327, 500 g ai/ha, 28 DA-A
[6] = TRZAX BRS327, 1000 g ai/ha, 15 DA-A
[7] = TRZAX BRS327, 1000 g ai/ha, 28 DA-A
[8] = TRZAX Iguaçú, 62.5 g ai/ha, 15 DA-A
[9] = TRZAX Iguaçú, 62.5 g ai/ha, 28 DA-A
[10] = TRZAX Iguaçú, 125 g ai/ha, 15 DA-A
[11] = TRZAX Iguaçú, 125 g ai/ha, 28 DA-A
[12] = TRZAX Iguaçú, 250 g ai/ha, 15 DA-A
[13] = TRZAX Iguaçú, 250 g ai/ha, 28 DA-A
[14] = TRZAX Iguaçú, 500 g ai/ha, 15 DA-A
[15] = TRZAX Iguaçú, 500 g ai/ha, 28 DA-A
[16] = TRZAX Iguaçú, 1000 g ai/ha, 15 DA-A
[17] = TRZAX Iguaçú, 1000 g ai/ha, 28 DA-A
[18] = TRZAX Itaipú, 62.5 g ai/ha, 15 DA-A
[19] = TRZAX Itaipú, 62.5 g ai/ha, 28 DA-A
[20] = TRZAX Itaipú, 125 g ai/ha, 15 DA-A
[21] = TRZAX Itaipú, 125 g ai/ha, 28 DA-A
[22] = TRZAX Itaipú, 250 g ai/ha, 15 DA-A
[23] = TRZAX Itaipú, 250 g ai/ha, 28 DA-A
[24] = TRZAX Itaipú, 500 g ai/ha, 15 DA-A
[25] = TRZAX Itaipú, 500 g ai/ha, 28 DA-A
[26] = TRZAX Itaipú, 1000 g ai/ha, 15 DA-A
[27] = TRZAX Itaipú, 1000 g ai/ha, 28 DA-A

CC(C)N(C(=O)n1cnn(-c2ccc(Cl)cc2Cl)c1=O)c1ccc(F)cc1F [ARY-0572-001, ipfencarbazone]
HEIGHT, treatment mean (TRZAX BRS327, 125 g ai/ha, 15 DA-A): 27.6 a cm | HEIGHT, percent of untreated check (APoC) [1]: (156.7%) | HEIGHT, treatment mean [1]: 35.0 a cm | HEIGHT, percent of untreated check (APoC) [2]: (171.4%) | HEIGHT, treatment mean [2]: 32.0 a cm | HEIGHT, percent of untreated check (APoC) [3]: (204.0%) | HEIGHT, treatment mean [3]: 45.6 a cm | HEIGHT, percent of untreated check (APoC) [4]: (130.7%) | HEIGHT, treatment mean [4]: 24.4 a cm | HEIGHT, percent of untreated check (APoC) [5]: (141.3%) | HEIGHT, treatment mean [5]: 31.6 a cm | HEIGHT, percent of untreated check (APoC) [6]: (92.9%) | HEIGHT, treatment mean [6]: 17.3 a cm | HEIGHT, percent of untreated check (APoC) [7]: (126.4%) | HEIGHT, treatment mean [7]: 28.2 a cm | HEIGHT, percent of untreated check (APoC) [8]: (158.8%) | HEIGHT, treatment mean [8]: 24.6 a cm | HEIGHT, percent of untreated check (APoC) [9]: (129.6%) | HEIGHT, treatment mean [9]: 29.2 bc cm | HEIGHT, percent of untreated check (APoC) [10]: (168.5%) | HEIGHT, treatment mean [10]: 26.1 a cm | HEIGHT, percent of untreated check (APoC) [11]: (133.5%) | HEIGHT, treatment mean [11]: 30.1 be cm | HEIGHT, percent of untreated check (APoC) [12]: (193.2%) | HEIGHT, treatment mean [12]: 29.9 a cm | HEIGHT, percent of untreated check (APoC) [13]: (192.1%) | HEIGHT, treatment mean [13]: 43.3 a cm | HEIGHT, percent of untreated check (APoC) [14]: (153.4%) | HEIGHT, treatment mean [14]: 23.8 ab cm | HEIGHT, percent of untreated check (APoC) [15]: (163.1%) | HEIGHT, treatment mean [15]: 36.8 ab cm | HEIGHT, percent of untreated check (APoC) [16]: (105.4%) | HEIGHT, treatment mean [16]: 16.3 bc cm | HEIGHT, percent of untreated check (APoC) [17]: (82.8%) | HEIGHT, treatment mean [17]: 18.7 c cm | HEIGHT, percent of untreated check (APoC) [18]: (169.2%) | HEIGHT, treatment mean [18]: 23.8 abc cm | HEIGHT, percent of untreated check (APoC) [19]: (154.6%) | HEIGHT, treatment mean [19]: 37.1 a cm | HEIGHT, percent of untreated check (APoC) [20]: (181.4%) | HEIGHT, treatment mean [20]: 25.5 ab cm | HEIGHT, percent of untreated check (APoC) [21]: (134.7%) | HEIGHT, treatment mean [21]: 32.3 a cm | HEIGHT, percent of untreated check (APoC) [22]: (223.7%) | HEIGHT, treatment mean [22]: 31.4 a cm | HEIGHT, percent of untreated check (APoC) [23]: (199.1%) | HEIGHT, treatment mean [23]: 47.8 a cm | HEIGHT, percent of untreated check (APoC) [24]: (157.7%) | HEIGHT, treatment mean [24]: 22.2 abc cm | HEIGHT, percent of untreated check (APoC) [25]: (100.0%) | HEIGHT, treatment mean [25]: 24.0 a cm | HEIGHT, percent of untreated check (APoC) [26]: (111.5%) | HEIGHT, treatment mean [26]: 15.7 bc cm | HEIGHT, percent of untreated check (APoC) [27]: (76.9%) | HEIGHT, treatment mean [27]: 18.4 a cm
